Assay results from patent US8158621B2, “Methods of treating or preventing autoimmune diseases with 2,4-pyrimidinediamine compounds” (Rigel Pharmaceuticals, Inc., priority 2002, dated 2012).
Read-outs that look alike come from different tables or passages of the source.

Tested on: Human Jurkat T-cells (clone N)
Assay: Jurkat T-cell activation (anti-TCR, CD69 upregulation)
Type: cell-based
Procedure, shortened: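 Jurkat cells in RPMI + 5% FBS preincubated with compound 1 h at 37 °C, then stimulated with anti-TCR C305 at 500 ng/ml for 20 h. CD69 surface expression stained with anti-CD69-APC and read by flow cytometry; IC50 versus solvent-only control.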

IC50 [µM]	IC50 (Homo sapiens, Jurkat) [µM]	SMILES	further results
3.33		O=C(c1cc2cc(Nc3ncc(F)c(Nc4ccc5c(c4)OCCO5)n3)ccc2o1)N1CCOCC1 [Compound R926492]	
0.982		CNC(=O)COc1cccc(Nc2ncc(F)c(Nc3cccc(NCCO)c3)n2)c1 [Compound R950265]	
6.27		Nc1ccc(Nc2ncc(F)c(Nc3ccc(N)cc3)n2)cc1 [Compound R950121]	
> 10		CC(C)(CO)c1ccc(Nc2nc(Nc3ccc4c(c3)OCCO4)ncc2F)cc1 [Compound R935149]	
5.67		CS(=O)(=O)Nc1cccc(Nc2ncc(F)c(Nc3cccc(NS(C)(=O)=O)c3)n2)c1 [Compound R950100]	
3.48		CNC(=O)COc1cccc(Nc2ncc(F)c(Nc3cccc(C(C)C)c3)n2)c1 [Compound R940288]	
> 10		COC(=O)C(C)Oc1ccc(Nc2ccnc(Nc3ccc(OC(C)C(=O)OC)cc3)n2)cc1 (racemic) [Compound R926257]	
> 10		CCOC(=O)c1cnc(Nc2cccc(OCC(=O)NC)c2)nc1Nc1cc(OC)cc(OC)c1 [Compound R926801]	
2.88		CNC(=O)COc1ccc(Nc2nc(Nc3ccc4c(c3)OCCO4)ncc2F)cc1 [Compound R945173]	
	> 10	Fc1cnc(NC(c2ccc(Cl)cc2)c2ccc(Cl)cc2)nc1NC(c1ccc(Cl)cc1)c1ccc(Cl)cc1 [Compound R935006]	
1.65		CNC(=O)COc1cccc(Nc2ncc(F)c(Nc3cccc(C(=NO)c4ccccc4)c3)n2)c1 [Compound R950374]	
11.4		CNC(=O)COc1cccc(Nc2ncc(F)c(Nc3ccc(OC)c(CO)c3)n2)c1 [Compound R950386]	
3.75		O=C1COc2cc(Nc3nc(Nc4cccc(O)c4)ncc3F)ccc2N1 [Compound R908698]	
> 10		CCOC(=O)COc1cccc(Nc2ncc(F)c(Nc3ccc(-n4cnc(Cl)c4Cl)cc3)n2)c1 [Compound R926809]	
> 10		Cc1cc(Nc2ncc(F)c(Nc3ccc(O)c(C)c3)n2)ccc1O [Compound R926469]	
	> 10	COc1cc(Nc2nc(Cl)ncc2F)c(OC)cc1Cl [Compound R926858]	
4.31		Cc1nc(COc2cccc(Nc3ncc(F)c(Nc4ccc5c(c4)OCCO5)n3)c2)no1 [Compound R945128]	
3.15		CNC(=O)COc1cccc(Nc2ncc(F)c(Nc3cccc(N)c3)n2)c1 [Compound R950262]	
4.69		CCOC(=O)CNC(=O)Oc1cccc(Nc2nc(Nc3cccc(OCC(=O)NC)c3)ncc2F)c1 [Compound R926918]	
7.2		CNC(=O)COc1cccc(Nc2ncc(F)c(Nc3ccc(F)c(C)c3)n2)c1 [Compound R926923]	
> 10		CCOC(=O)COc1cccc(Nc2ncc(F)c(Nc3cc(OC)cc(OC)c3)n2)c1 [Compound R926795]	
	4.66	Oc1ccc(-c2cnc(Nc3ccc4c(c3)OCCO4)nc2Nc2ccc3c(c2)OCCO3)cc1 [Compound R925816]	
		COc1ccc([N+](=O)[O-])cc1Nc1ncc(F)c(Nc2cc([N+](=O)[O-])ccc2OC)n1 [Compound R950151]	IC50 (Homo sapiens): 14.2 µM
	1.91	CCOC(=O)c1cc2cc(Nc3ncc(F)c(Nc4ccc5[nH]c(C(=O)OCC)cc5c4)n3)ccc2[nH]1 [Compound R926616]	
	> 10	COc1ccc(Nc2nc(Nc3cccc(C(C)(C)C)c3)ncc2F)cc1OC [Compound R940260]	
	29.1	CCOc1ccc(Nc2ccnc(Nc3ccc(OCC)c(N)c3)n2)cc1N [Compound R950142]	
> 10		COC(=O)C(C)Oc1ccc(Nc2ncc(F)c(Nc3ccc(OC(C)C(=O)OC)cc3)n2)cc1 (mixture of isomers) [Compound R926254]	
	> 10	O=c1ccc2cc(Nc3ncc(F)c(Nc4ccc5oc(=O)ccc5c4)n3)ccc2o1 [Compound R926617]	

IC50 [µM]	IC50 (Homo sapiens, Jurkat) [µM]	SMILES	further results
> 10		CC(=O)Nc1cccc(N(C(C)=O)c2ncc(F)c(N(C(C)=O)c3cccc(N(C(C)=O)C(C)=O)c3)n2)c1 [Compound R950245]	
1.86		Oc1cccc(Nc2nc(Nc3ccc(OCCN4CCOCC4)cc3)ncc2F)c1 [Compound R926699]	
	> 10	Oc1cccc(Nc2nc(Nc3ccc(-n4cnc(Cl)c4Cl)cc3)ncc2F)c1 [Compound R926777]	
		O=[N+]([O-])c1ccc(F)c(Nc2ncc(F)c(Nc3cc([N+](=O)[O-])ccc3F)n2)c1 [Compound R950147]	IC50 (Homo sapiens): 14.8 µM
	> 10	CCOC(=O)Nc1ccc(Nc2ncc(F)c(Nc3ccc(NC(=O)OCC)c(O)c3)n2)cc1O [Compound R926340]	
	> 10	Fc1cnc(Nc2ccc3c(c2)OC(F)(F)O3)nc1Nc1ccc2c(c1)OCCO2 [Compound R926386]	
	15	CCOc1ccc(Nc2ncc(F)c(Nc3ccc4c(c3)OCCO4)n2)cc1 [Compound R926211]	
> 10		COC(=O)c1ccc(Cn2ncc3ccc(Nc4ncc(F)c(Nc5ccc6c(c5)OCCO6)n4)cc32)c(OC)c1 [Compound R935320]	
> 10		Fc1cnc(Nc2ccc(OCc3nn[nH]n3)cc2)nc1Nc1ccc(OCc2nn[nH]n2)cc1 [Compound R945033]	
	> 10	Fc1cnc(Nc2cccc(OC(F)(F)F)c2)nc1Nc1cccc(OC(F)(F)F)c1 [Compound R926038]	
	18.2	OCc1cccc(Nc2nc(Nc3ccc4c(c3)OCCO4)ncc2F)c1 [Compound R925758]	
6.2		CC1Sc2ccc(Nc3ncc(F)c(Nc4cccc(O)c4)n3)cc2NC1=O (racemic) [Compound R909263]	
9.81		O=C(COc1cccc(Nc2ncc(F)c(Nc3ccc4c(c3)OCCO4)n2)c1)N(CCO)CCO [Compound R926781]	
23.1		O=C(c1cc2cc(Nc3ncc(F)c(Nc4ccc5oc(C(=O)N6CCOCC6)cc5c4)n3)ccc2o1)N1CCOCC1 [Compound R950172]	
> 10		COC(=O)c1cc(COc2cccc(Nc3ncc(F)c(Nc4ccc5c(c4)OCCO5)n3)c2)co1 [Compound R935207]	
	> 10	CCOC(=O)c1nc(Nc2cccc(O)c2)nc(Nc2cccc(O)c2)c1N [Compound R925856]	
0.88		CNC(=O)CCn1ncc2cc(Nc3ncc(F)c(Nc4ccc(OC(C)C)cc4)n3)ccc21 [Compound R935310]	
	> 10	Cc1ccc(Nc2ncc(F)c(Nc3ccc(C)cc3)n2)cc1 [Compound R926225]	
> 10		O=C(COc1ccc(Nc2nc(Nc3cccc(O)c3)ncc2Br)cc1)NCC1CC1 [Compound R925842]	
	> 10	Oc1c(Cl)cc(Nc2ncc(F)c(Nc3cc(Cl)c(O)c(Cl)c3)n2)cc1Cl [Compound R940215]	
	7.6	CCNC(=O)Nc1cccc(Nc2ncc(F)c(Nc3cccc(NC(=O)NCC)c3)n2)c1 [Compound R945045]	
1.55		CNC(=O)COc1cccc(Nc2ncc(F)c(Nc3ccc4c(c3)C(OC(C)=O)CCO4)n2)c1 (stereo not shown) [Compound R950382]	
	> 10	CC(C)c1ccc(O)cc1Nc1ncc(F)c(Nc2cc(O)ccc2C(C)C)n1 [Compound R935077]	
2.19		CNC(=O)COc1cccc(Nc2ncc(F)c(Nc3cccc(C(=O)c4ccccc4)c3)n2)c1 [Compound R950372]	
	11.8	CCOC(=O)C1CCN(C(=O)c2cccc(Nc3ncc(F)c(Nc4ccc5cc[nH]c5c4)n3)c2)CC1 [Compound R926935]	
> 10		CCOC(=O)C1CCN(C(=O)c2cccc(Nc3nc(Nc4cccc(OCC(=O)NC)c4)ncc3F)c2)CC1 [Compound R926941]	
	> 10	Cc1cc(Nc2ncc(F)c(Nc3ccc4c(c3)OCCO4)n2)cc(C(F)(F)F)c1 [Compound R926895]	
